Here are results for two compounds from patent US20080004272A1, “Compositions and methods for modulating gated ion channels” (PainCeptor Pharma Corporation, priority 2006, published 2008).

The target of the assay is T1, ASIC1a (Homo sapiens, UniProt P78348).
T1 sequence (P78348 1-528): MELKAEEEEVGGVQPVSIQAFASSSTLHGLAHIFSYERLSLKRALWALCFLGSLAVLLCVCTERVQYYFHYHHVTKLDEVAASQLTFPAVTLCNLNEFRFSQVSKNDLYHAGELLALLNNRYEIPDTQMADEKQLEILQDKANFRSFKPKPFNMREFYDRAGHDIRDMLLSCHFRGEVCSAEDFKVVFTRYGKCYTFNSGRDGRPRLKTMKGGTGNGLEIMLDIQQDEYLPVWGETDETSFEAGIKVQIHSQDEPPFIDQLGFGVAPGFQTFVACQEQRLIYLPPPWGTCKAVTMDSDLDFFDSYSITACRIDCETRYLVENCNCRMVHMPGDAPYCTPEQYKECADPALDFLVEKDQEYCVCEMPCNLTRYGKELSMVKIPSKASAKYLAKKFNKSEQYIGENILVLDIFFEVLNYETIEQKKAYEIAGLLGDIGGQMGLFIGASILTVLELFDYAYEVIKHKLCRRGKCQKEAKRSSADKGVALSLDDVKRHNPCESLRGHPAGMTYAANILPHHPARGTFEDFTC
As to the kind of experiment: Two-electrode voltage clamp in Xenopus laevis oocytes (Xo), acid-induced currents. The format is cell-based. Also on record: expressed in transfected cells; host or cells: Xenopus laevis oocytes (nuclear microinjection of expression vector such as pcDNA3). The conditions noted are these: for inhibition at 50 µM: Xenopus oocytes, read-out: % inh. at 50 μM (Xo). Summed up:
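Defolliculated oocytes were nuclear-injected with channel cDNA and expressed for 2–4 days at 19 °C. Under two-electrode voltage clamp at room temperature, oocytes were superfused with pH 7.4 Ringer, and currents were evoked by switching to acidic MES Ringer (pH<7). Compound was present in both control and acidic solutions.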

Like-named read-outs stand apart in the source and are kept apart here. Some results are limits rather than exact numbers.

What is called IC50 is the concentration at which inhibition is half-maximal. Regarding `CN1CCc2c(-c3ccccc3)cc(C#N)c(N)c2C1` [Compound 203, 8-Amino-2-methyl-5-phenyl-1,2,3,4-tetrahydro-isoquinoline-7-carbonitrile], the IC50 amounted to 6.2 µM and the inhibition at 50 µM was more than 70%.
Take `COc1ccc(F)cc1-c1cc(C#N)c(N)c2c1CCN(C)C2` [Compound 206, 8-Amino-5-(5-fluoro-2-methoxy-phenyl)-2-methyl-1,2,3,4-tetrahydro-isoquinoline-7-carbonitrile]: the inhibition at 50 µM fell in the range of 50 to 70%. In addition, for the setting “Xenopus laevis oocytes, three point dose-response, read-out: IC50, half maximal inhibition of the acid-evoked response in hASIC1a”, the IC50 amounted to 34 µM.
